The record followed here is article PMC7531601, “Exploiting Lactoferricin (17–30) as a Potential Antimicrobial and Antibiofilm Candidate Against Multi-Drug-Resistant Enteroaggregative Escherichia coli” (Frontiers in Microbiology, 2020).

Where two headings read alike, the source gives them in different places. Ends that are not written are not given here.

Series [1] relates to G. mellonella larvae infected with MDR-EAEC (a cocktail of three strains). Briefly: G. mellonella larval survival. Format: in vivo, Galleria mellonella. As to conditions: uninfected larvae, MIC dose, up to 120 h pi. The procedure:
The final instar of G. mellonella larvae was utilized for performing the in vivo assays ([Morgan et al., 2014]). The larvae (ca. 200–250 mg) inoculated with aliquots of MDR-EAEC suspensions (10 μl) by injection using Hamilton syringe (26 gauge) via the last right pro-leg were incubated at 37°C and the observations were noted. The larvae kept in a sterile environment were provided with ad lib food during the experiment.
The determined LD50 dose for each MDR-EAEC strain in the larvae was validated and employed further in the in vivo experiments to evaluate the antibacterial efficacy of Lfcin (17–30).
Galleria mellonella larvae were grouped 40 per group for in vivo antimicrobial testing of Lfcin (17–30) as follows: group I (MDR-EAEC infection control), groups II and III (infection + treatment groups), group IV (PBS control), and group V [Lfcin(17–30) control]. Optimized LD50 dose of MDR-EAEC (a cocktail of three strains) was administered to larvae of groups I to III, while MIC dose of Lfcin (17–30) and Meropenem was administered 3 h post-infection (pi) in groups II and III, respectively. Larval group IV was injected with sterile PBS, whereas MIC dose of Lfcin (17–30) was administered in group V. […]

The subject of a further series is MDR-EAEC strains. Conditions: MDR-EAEC strains (n = 3). The protocol: (§1) Initially, characterization of Lfcin (17–30) was performed by determining its minimum inhibitory concentration (MIC), minimum bactericidal concentration (MBC), in vitro stability assays (high-end temperatures, the physiological concentration of cationic salts and proteases), and in vitro safety assays (sheep erythrocyte hemolysis and secondary cell line cytotoxicity) (Supplementary Files S1–S3). The membrane permeabilization effect of Lfcin (17–30) was assessed by flow cytometry, whereas outer and inner membrane permeability of MDR-EAEC strains treated with 1 × and 2 × MIC levels of Lfcin (17–30) was carried out based on the nitrocefin activity as well as the release of cytoplasmic β-galactosidase activity, respectively (Supplementary File S4). Further, Lfcin (17–30) was evaluated for its antibacterial activity against beneficial lactobacilli (L. acidophilus MTCC 10307 and L. rhamnosus MTCC 1408) (Supplementary File S5).

Series [2] deals with L. acidophilus MTCC 10307. As to conditions: 1X MIC, MRS broth, 37°C, 48 h, absorbance 600 nm and plating. The protocol: as §1
(§2) Besides, the safety aspect of Lfcin (17-30) against beneficial gut lactobacilli was also investigated. […] After incubation at 37 °C for 48 h, the antibacterial effect of AMP on commensal lactobacilli was measured by observing the absorbance at 600 nm (Thermo Scientific Multiskan GO) as well as drawing two 10 µl samples from each well and plating them onto MRS agar plates. […]

Another series relates to L. rhamnosus MTCC 1408. Conditions: 1X MIC, MRS broth, 37°C, 48 h, absorbance 600 nm and plating. The procedure:
as §1, §2

Series [3] relates to preformed (48 h) MDR-EAEC biofilm. Conditions: preformed (48 h) biofilm of MDR-EAEC strains. The procedure: The MBEC of Lfcin (17–30) was determined against the preformed (48 h) MDR-EAEC biofilm ([Ceri et al., 1999]). MBEC value is the lowest concentration of Lfcin (17–30) that prevented the MDR-EAEC re-growth. This MBEC value of Lfcin (17–30) was further used to study the eradication of biofilm formed by MDR-EAEC strains.

Another series has as its system HEp-2 cells. As to conditions: MTT. The procedure: as §1
(§3) To determine the safety of Lfcin (17-30) on host cells, a haemolytic assay using sheep erythrocytes as well as cytotoxicity assay using secondary cell lines were performed with 1X, 2X and 4X MICs of Lfcin (17-30), respectively. In brief, haemolytic assay was performed, wherein the haemolytic activity of Lfcin (17-30) was tested by determining the extent of haemoglobin release from sheep erythrocytes (10%). Further, the safety aspect of Lfcin (17-30) was evaluated on secondary cell line viz., human epithelioma cell line (HEp-2), and murine macrophage cell line (RAW 264.7) by performing MTT [3-(4,5-dimethylthiazole-2-yl)-2,5-diphenyl tetrazolium bromide] assay.

The test system of the next series is sheep erythrocytes. As to conditions: sheep erythrocytes (10%). The protocol:
as §1, §3

The test system of a further series is RAW 264.7 cells. As to conditions: MTT. The protocol:
as §1, §3

For orientation: MBC means the lowest tested concentration that kills the bacteria rather than only halting them. A low value points to greater bactericidal potency. What is called MIC is the lowest concentration that inhibits growth of the organism. The low end stands for greater potency, the high end for weaker potency. In series [1], FKCRRWQWRMKKLG [Lfcin (17–30)] registered a survival rate of 100%. The sequence also registered an MBC in the series with MDR-EAEC strains (at least 99.9% killing after 24 h) of 32 µM. Further, the MIC against MDR-EAEC strains (micro-broth dilution) stood at 32 µM. The “antimicrobial effect on beneficial lactobacilli” value (in series [2]; in the series with L. rhamnosus MTCC 1408) was “non-significant” each time. The sequence further returned an MBEC in series [3] of 32 µM. Further, the “cytotoxicity / morphological changes” value in the series with HEp-2 cells (HEp-2, 1× and 2× MIC) was “remarkable morphological changes were not evident”; in the series with RAW 264.7 cells (RAW 264.7, 1× and 2× MIC), “remarkable morphological changes were not evident”. The cytotoxicity entry in the series on HEp-2 cells (HEp-2, 4× MIC) is given as “moderate to higher cytotoxicity”; in the series on RAW 264.7 cells (RAW 264.7, 4× MIC), “moderate to higher cytotoxicity”. Moreover, the “Haemolysis (%)” value in the series with sheep erythrocytes (MIC (1X)) and in the series with sheep erythrocytes (MIC (2X)) was “non-hemolytic” each time.
